In US20220088103A1, “PEANUT STEM AND LEAF EXTRACT AND PREPARATION METHOD AND USE THEREOF” (INSTITUTE OF FOOD SCIENCE AND TECHNOLOGY, CHINESE ACADEMY …, priority 2019, published 2022):

System: sleep of mice
Experiment: Effect on 24-hour sleep of mice (EEG and electromyograph recording)
Type: in vivo, Male Bal b/c mice
Conditions: standard substances dosed according to their identified contents in the extract; intragastric, D1 to D14; FIG. 3
Description: The BAL b/c mice is used as a model in the present invention, and the electrophysiological technology is adopted, wherein electrodes are implanted in the brain of the mice, and the brain wave changes of mice after drug administration is real time 24-hour monitored for 14 days, thereby determining that the functional active substances in the peanut stem and leaf extract provided by the present invention have a significant sleep promoting function.
Experiment of the effect of the peanut stem and leaf extract prepared in Example 1 on sleep of mice
The peanut stem and leaf extract prepared according to the method of Example 1 was used as an experimental drug, and the standard drugs were administered to the mice according to the identified contents of the substances such as naringenin-4,7′-dimethyl ether.
The experiment was divided into a control group, extract groups (three groups of low, medium and high doses), a positive control group and a functional factor group (four functional active substances). Male Bal b/c mice were used, 6 mice for each group.
The mice were anesthetized at abdominal cavity with chloral hydrate (4%) at 0.10 mL/10 g. After the pain reflex disappeared, the mice were fixed on a mouse brain stereotactic adapter, and the hair on the head of the mice was cut off and 75% alcohol was used to disinfect the skin, the skin was cut along the midline of the skull, and the subcutaneous tissue was separated to fully expose the skull. […] The electroencephalo-graph (EEG) electrodes were fixed on the skull with tissue glue and dental cement successively, and the EEG electrode was connected to a screw (fixed in the hole drilled on the skull) to touch the cerebral dura mater by a silver wire to record cortical EEG activity. The two silver wires connected to the myoelectric electrodes were inserted into the muscles on both sides of the neck of the mouse to record the myoelectric activity. The electrode base was then fixed to the skull with tissue glue and dental cement. Mice were injected with penicillin after surgery (measuring 80,000 units/day for three consecutive days). The mice were raised separately in a shielding box with constant temperature, constant humidity, sound insulation and electrostatic shielding function during the recovery period after surgery. The cables for recording EEG and myoelectricity were connected to the electrodes on the head of the mouse on the second day after surgery, and the mice were allowed to adapt for 7 days. […] The EEG and electromyograph of mice that recovered and adapted to the experimental environment began to be recorded from 8:00 in the morning for 24 hours, and this day was recorded as D0. […] The EEG and electromyograph were recorded on the D7 and D14, and the brain tissue was taken after gavage at 8:00 in the morning on D15.

SMILES | sleep time of mice (24-hour sleep)
COc1cc(O)ccc1C(=O)/C=C/c1ccc(O)cc1 [2′-O-methylisoliquiritigenin] | significantly improve
COc1cc(/C=C/C(=O)O)ccc1O [ferulic acid] | significantly improve
C=CC(C)(O)CCC=C(C)C (stereo not shown) [linalool] | significantly improve
COc1ccc(C2CC(=O)c3c(O)cc(OC)cc3O2)cc1 (stereo not shown) [naringenin-4,7′-dimethyl ether] | significantly improve
